Measurements: patent US6022892A, “Bis-platinum complexes with polyamine ligands as antitumor agents” (Hoffman-La Roche Inc., priority 1998, dated 2000)

Assays:
A2780 = experiment: cytotoxic effect in vitro on human ovarian carcinoma A2780; format: cell-based; settings: after 1 hour from the drug exposure
Protocol: (§1) The compounds of formula (I) were tested for their cytotoxic effect "in vitro" on various tumor cell lines, among which murine leukemia L1210, human ovarian carcinoma A2780 and the respective cisplatin resistant sublines L1210/CDDP and A2780/CDDP.
(§2) a) IC50 (concentration of the drug expressed as ([…] which causes a 50% inhibition of the cell growth) determined after 2 hours from the drug exposure.
(§3) d), e) IC50 determined after 1 hour from the drug exposure in the non resistant and in the resistant cell lines, receptively.

A2780/CDDP = experiment: cytotoxic effect in vitro on cisplatin resistant subline A2780/CDDP; format: cell-based, human; settings: after 1 hour from the drug exposure, resistant line
Protocol: as §1, §2, §3

L1210/CDDP = experiment: cytotoxic effect in vitro on cisplatin resistant subline L1210/CDDP; format: cell-based, murine; settings: after 72 hours from the drug exposure, resistant line
Protocol: as §1, §2
b), c) IC50 determined after 72 hours from the drug exposure in the non resistant and in the resistant cell lines, receptively.

L1210CDDP = experiment: in vivo antitumor test, L1210/CDDP tumor cells inoculated ip in mouse; settings: ip 24, 120 and 216 hours after tumor inoculation
Protocol: In addition, the compounds of the invention were tested in an "in vivo" test in which L1210 and L1210/CDDP tumor cells are inoculated intraperitoneally (ip) in a mouse and the compound is administered ip 24, 120 and 216 hours after tumor inoculation.
% T/C=[(MST treated)/(MST control)]×100

[Cl-].[Cl-].[Cl-].[NH2][Pt+]([NH2])([Cl])[NH]CCCC[NH2+]CCC[NH][Pt+]([NH2])([NH2])[Cl] [Example 14, [trans-(PtCl(NH3)2)2-(-spermidine]Cl3]
A2780 IC50 1h (A2780): < 0.005 µg/mL | A2780/CDDP IC50 1h (A2780/CDDP): 0.13 µg/mL | L1210/CDDP IC50 72h (L1210/CDDP): 0.03 µg/mL

N.N.[Cl][Pt][Cl] [cisplatin, reference compound]
T/C % (mean survival time treated/control) (L1210CDDP; 6 mg/kg): 110%

[trans-(PtCl(NH3)2)2 (-spermine]Cl4 [Example 16]
A2780 IC50 1h (A2780): < 0.005 µg/mL | T/C % (mean survival time treated/control) (L1210CDDP; 2 mg/kg): 172%

[trans-(PtCl(NH3)2)2 H2 N--(CH2)6 --NH2 ](NO3)2 [reference compound]
L1210/CDDP IC50 72h (L1210/CDDP): 0.1 µg/mL
